{
  "source": "ChEMBL document CHEMBL5465560",
  "about": "“Selectivity Literature for EUbOPEN Chemogenomic Library” (2024)",
  "key": {"[1]": {"biological_target": "Dual specificity tyrosine-phosphorylation-regulated kinase 1A (Homo sapiens, UniProt Q13627)", "assay": "Selectivity interaction (Enzymatic assay (Eurofins)) EUB0001049a DYRK1A"}, "[2]": {"biological_target": "T1, Dual serine/threonine and tyrosine protein kinase (Homo sapiens) (UniProt Q6XUX3)", "T1 sequence (whole entry)": "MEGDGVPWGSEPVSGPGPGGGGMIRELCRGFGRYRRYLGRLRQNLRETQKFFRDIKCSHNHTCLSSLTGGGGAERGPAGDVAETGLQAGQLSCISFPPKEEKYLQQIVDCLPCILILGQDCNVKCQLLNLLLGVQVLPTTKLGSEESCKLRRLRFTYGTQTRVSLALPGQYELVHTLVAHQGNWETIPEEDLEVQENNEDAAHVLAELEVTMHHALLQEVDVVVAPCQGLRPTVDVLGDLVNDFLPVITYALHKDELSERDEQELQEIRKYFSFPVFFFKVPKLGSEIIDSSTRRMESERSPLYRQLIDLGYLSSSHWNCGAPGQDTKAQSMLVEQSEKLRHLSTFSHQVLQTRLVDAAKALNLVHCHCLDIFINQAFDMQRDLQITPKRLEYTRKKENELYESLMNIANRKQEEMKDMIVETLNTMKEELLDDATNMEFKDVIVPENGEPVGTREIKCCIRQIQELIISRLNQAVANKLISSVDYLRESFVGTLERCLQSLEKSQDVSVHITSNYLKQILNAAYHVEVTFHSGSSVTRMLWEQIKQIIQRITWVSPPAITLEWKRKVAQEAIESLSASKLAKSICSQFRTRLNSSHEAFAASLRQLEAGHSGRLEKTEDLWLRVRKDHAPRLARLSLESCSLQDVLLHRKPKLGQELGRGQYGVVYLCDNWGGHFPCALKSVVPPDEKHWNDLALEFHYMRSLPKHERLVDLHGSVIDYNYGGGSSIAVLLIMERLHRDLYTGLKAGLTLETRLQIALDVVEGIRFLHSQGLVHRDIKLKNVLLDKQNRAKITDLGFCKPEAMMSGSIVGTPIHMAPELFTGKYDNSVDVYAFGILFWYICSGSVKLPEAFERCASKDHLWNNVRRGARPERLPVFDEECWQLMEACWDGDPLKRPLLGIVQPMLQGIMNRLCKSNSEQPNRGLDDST", "assay": "Selectivity interaction (KinomeScan (DiscoverX)) EUB0001049a DSTYK", "details": "at 1 µM"}, "[3]": {"biological_target": "Transcription initiation factor TFIID subunit 1 (Homo sapiens) (UniProt P21675)", "sequence (P21675 whole entry)": "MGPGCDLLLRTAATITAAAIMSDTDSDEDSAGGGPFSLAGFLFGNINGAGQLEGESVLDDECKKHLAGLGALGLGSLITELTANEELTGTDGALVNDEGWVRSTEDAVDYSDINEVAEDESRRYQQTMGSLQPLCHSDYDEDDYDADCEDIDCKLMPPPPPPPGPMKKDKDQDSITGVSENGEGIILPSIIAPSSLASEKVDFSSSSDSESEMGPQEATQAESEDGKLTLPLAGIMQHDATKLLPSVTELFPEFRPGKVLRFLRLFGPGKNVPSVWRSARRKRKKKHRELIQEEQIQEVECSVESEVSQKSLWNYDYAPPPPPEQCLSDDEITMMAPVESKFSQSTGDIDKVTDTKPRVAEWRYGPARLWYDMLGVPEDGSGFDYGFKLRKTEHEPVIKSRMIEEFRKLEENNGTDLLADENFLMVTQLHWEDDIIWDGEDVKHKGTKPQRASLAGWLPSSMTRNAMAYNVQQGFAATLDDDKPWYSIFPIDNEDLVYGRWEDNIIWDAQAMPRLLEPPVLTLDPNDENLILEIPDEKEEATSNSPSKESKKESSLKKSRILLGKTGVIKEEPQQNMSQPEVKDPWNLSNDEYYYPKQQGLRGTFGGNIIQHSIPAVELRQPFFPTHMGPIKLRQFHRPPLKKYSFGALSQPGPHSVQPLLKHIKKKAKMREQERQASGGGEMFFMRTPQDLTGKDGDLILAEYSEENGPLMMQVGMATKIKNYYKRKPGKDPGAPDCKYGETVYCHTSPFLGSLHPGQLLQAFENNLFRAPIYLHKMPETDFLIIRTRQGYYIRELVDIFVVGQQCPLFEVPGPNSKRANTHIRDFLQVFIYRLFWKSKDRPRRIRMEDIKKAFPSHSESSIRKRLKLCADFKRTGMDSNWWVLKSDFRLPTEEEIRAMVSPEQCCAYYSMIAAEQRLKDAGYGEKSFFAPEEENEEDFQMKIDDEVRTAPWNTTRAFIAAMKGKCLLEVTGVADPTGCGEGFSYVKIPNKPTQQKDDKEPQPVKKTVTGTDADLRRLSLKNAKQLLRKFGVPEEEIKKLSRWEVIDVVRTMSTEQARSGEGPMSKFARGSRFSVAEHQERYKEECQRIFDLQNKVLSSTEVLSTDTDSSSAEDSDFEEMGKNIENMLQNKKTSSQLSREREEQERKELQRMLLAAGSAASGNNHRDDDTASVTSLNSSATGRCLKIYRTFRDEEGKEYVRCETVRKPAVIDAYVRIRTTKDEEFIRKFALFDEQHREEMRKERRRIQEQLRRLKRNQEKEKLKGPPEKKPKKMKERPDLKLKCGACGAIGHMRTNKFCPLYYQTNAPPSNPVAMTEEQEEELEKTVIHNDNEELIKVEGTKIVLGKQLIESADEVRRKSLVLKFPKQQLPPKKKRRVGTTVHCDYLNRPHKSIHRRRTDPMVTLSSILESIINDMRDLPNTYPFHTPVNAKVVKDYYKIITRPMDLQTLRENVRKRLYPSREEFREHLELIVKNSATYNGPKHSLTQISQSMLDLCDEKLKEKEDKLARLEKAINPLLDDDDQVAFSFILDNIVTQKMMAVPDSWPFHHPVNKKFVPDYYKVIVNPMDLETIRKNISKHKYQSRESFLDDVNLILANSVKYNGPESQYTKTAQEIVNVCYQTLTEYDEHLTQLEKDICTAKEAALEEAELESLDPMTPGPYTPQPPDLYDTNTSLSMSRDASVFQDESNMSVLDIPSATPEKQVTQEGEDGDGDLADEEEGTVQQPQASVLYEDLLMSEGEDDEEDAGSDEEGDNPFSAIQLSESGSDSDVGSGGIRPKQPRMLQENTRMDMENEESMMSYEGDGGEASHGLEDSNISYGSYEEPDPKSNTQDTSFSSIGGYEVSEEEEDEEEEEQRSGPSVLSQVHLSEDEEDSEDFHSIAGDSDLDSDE", "assay": "Selectivity interaction (Human bromodomain panel (DSF assay)) EUB0000233b TAF1"}, "[4]": {"biological_target": "Eukaryotic translation initiation factor 2-alpha kinase 1 (Homo sapiens) (UniProt Q9BQI3)", "sequence (Q9BQI3 whole entry)": "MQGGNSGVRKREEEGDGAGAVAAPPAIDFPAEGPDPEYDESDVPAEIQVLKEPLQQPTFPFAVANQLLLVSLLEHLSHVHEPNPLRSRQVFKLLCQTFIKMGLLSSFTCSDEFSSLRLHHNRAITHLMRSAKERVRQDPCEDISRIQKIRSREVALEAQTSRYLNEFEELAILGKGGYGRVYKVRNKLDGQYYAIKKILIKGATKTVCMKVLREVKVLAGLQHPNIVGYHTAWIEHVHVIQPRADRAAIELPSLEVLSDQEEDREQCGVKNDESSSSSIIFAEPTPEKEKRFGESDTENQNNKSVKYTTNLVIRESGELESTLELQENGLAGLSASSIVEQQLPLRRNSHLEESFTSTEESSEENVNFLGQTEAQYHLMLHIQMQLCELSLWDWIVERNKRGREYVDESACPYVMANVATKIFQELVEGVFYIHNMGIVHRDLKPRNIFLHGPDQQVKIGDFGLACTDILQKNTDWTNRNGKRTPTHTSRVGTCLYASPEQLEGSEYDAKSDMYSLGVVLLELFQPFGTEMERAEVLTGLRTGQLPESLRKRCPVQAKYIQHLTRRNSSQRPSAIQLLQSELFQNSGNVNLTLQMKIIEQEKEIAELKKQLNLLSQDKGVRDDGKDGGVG", "assay": "Selectivity interaction (KinomeScan (DiscoverX)) EUB0000045b EIF2AK1"}, "[5]": {"biological_target": "Casein kinase I isoform gamma-1 (Homo sapiens) (UniProt Q9HCP0)", "sequence (Q9HCP0 whole entry, looked up, canonical isoform)": "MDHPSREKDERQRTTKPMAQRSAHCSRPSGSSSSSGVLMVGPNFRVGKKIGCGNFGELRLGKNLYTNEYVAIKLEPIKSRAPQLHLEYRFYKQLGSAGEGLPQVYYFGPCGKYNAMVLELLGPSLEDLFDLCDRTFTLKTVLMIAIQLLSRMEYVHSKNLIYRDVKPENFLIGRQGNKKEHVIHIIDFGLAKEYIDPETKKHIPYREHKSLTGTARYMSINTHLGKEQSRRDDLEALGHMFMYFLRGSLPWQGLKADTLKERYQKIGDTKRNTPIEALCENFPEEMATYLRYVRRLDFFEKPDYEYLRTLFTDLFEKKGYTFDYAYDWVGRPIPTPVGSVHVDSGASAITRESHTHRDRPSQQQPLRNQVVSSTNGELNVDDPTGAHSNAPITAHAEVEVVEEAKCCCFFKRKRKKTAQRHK", "assay": "Selectivity interaction (KinomeScan (DiscoverX)) EUB0001619a CSNK1G1", "details": "at 1 µM"}, "[6]": {"biological_target": "Serine/threonine-protein kinase MARK1 (Homo sapiens) (UniProt Q9P0L2)", "assay": "Selectivity interaction (KinomeScan (DiscoverX)) EUB0000655a MARK1", "details": "at 10 µM"}, "[7]": {"biological_target": "Mitogen-activated protein kinase 10 (Homo sapiens, UniProt P53779)", "sequence (P53779 whole entry)": "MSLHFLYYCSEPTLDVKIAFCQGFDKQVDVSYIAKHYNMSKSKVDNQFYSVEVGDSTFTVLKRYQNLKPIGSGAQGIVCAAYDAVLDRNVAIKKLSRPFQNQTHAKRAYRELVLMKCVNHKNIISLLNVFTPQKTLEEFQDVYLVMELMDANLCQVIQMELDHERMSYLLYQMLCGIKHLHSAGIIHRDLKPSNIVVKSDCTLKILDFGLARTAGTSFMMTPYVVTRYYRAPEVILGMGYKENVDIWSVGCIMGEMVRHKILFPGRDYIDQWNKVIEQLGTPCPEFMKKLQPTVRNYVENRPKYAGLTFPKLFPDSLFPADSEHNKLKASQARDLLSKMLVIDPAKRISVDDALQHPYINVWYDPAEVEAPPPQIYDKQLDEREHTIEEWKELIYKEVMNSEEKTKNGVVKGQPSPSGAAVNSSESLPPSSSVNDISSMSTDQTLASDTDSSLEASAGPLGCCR", "assay": "Selectivity interaction (KinomeScan (DiscoverX)) EUB0000695a MAPK10", "details": "at 100 nM"}, "[8]": {"biological_target": "T2, Serine/threonine-protein kinase BRSK1 (Homo sapiens) (UniProt Q8TDC3)", "T2 sequence (whole entry)": "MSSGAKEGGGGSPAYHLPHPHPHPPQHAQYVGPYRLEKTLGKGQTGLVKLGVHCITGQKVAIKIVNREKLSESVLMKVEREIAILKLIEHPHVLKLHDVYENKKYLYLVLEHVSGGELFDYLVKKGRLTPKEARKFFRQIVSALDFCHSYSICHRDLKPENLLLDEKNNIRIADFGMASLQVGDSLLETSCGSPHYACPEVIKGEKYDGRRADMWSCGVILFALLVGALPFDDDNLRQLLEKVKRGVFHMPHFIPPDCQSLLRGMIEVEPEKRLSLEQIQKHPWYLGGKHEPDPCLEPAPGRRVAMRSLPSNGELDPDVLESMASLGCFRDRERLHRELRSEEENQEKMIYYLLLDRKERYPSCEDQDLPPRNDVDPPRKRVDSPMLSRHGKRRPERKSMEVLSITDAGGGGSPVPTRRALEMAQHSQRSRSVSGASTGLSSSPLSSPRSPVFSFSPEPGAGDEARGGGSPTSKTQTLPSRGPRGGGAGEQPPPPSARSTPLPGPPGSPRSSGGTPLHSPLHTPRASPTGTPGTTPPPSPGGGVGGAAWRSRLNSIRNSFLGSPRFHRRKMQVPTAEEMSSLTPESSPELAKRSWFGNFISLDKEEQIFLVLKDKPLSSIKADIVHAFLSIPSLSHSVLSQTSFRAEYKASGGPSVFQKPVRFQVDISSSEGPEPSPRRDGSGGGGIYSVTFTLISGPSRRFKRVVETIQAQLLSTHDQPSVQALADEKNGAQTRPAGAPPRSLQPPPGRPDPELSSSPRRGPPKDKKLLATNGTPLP", "assay": "Selectivity interaction (KinomeScan (DiscoverX)) EUB0000607a BRSK1", "details": "at 10 µM"}, "[9]": {"biological_target": "DNA-dependent protein kinase catalytic subunit (Homo sapiens) (UniProt P78527)", "assay": "Selectivity interaction (Kinase panel (Z-LYTE Assay)) EUB0001632a PRKDC", "details": "at 10 µM"}, "[10]": {"biological_target": "STE20-like serine/threonine-protein kinase (Homo sapiens, UniProt Q9H2G2)", "sequence (Q9H2G2 whole entry, looked up)": "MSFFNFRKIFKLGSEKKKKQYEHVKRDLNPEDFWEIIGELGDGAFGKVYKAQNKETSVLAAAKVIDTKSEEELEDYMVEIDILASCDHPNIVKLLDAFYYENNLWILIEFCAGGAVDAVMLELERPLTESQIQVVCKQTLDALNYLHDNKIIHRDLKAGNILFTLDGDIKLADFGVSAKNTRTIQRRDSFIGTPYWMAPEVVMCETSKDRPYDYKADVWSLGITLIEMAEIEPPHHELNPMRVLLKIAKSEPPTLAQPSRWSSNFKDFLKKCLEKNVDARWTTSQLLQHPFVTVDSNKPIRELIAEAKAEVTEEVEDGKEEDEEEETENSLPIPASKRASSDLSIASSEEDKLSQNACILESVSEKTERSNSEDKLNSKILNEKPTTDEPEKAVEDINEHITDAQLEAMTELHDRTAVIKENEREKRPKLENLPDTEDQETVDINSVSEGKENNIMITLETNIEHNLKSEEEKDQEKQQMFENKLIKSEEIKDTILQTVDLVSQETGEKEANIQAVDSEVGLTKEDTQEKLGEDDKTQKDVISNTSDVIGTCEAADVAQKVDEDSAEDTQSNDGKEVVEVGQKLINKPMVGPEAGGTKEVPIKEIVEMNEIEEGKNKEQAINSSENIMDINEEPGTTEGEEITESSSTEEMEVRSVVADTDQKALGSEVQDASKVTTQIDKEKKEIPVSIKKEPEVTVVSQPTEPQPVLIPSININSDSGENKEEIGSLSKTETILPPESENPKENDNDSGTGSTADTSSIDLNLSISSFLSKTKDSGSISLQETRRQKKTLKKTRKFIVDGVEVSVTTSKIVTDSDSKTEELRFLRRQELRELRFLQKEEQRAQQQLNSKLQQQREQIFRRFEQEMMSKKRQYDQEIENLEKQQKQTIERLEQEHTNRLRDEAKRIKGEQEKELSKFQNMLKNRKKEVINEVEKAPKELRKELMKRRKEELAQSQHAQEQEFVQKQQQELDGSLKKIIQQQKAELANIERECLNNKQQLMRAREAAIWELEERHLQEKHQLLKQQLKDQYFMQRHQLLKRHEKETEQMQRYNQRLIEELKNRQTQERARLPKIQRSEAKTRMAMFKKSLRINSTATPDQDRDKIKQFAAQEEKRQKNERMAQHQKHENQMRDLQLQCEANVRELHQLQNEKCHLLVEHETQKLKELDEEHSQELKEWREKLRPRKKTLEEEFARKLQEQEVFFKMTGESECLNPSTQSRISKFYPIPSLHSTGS", "assay": "Selectivity interaction (ProQinase) EUB0000171b SLK"}},
  "data": [
    {"smiles": "COc1cc(Nc2nc(C)cc(-c3cnn4nc(OC)ccc34)n2)cc(C(F)(F)F)c1", "values": [
      {"measurement": "IC50", "setting": "[1]", "value": "> 10", "unit": "µM"},
      {"measurement": "% of control", "setting": "[2]", "value": 79, "unit": "%"}
    ]},
    {"smiles": "CN(C)CCCOc1ccc(-c2cc(NCCCn3cccn3)nc(S(C)(=O)=O)n2)cc1", "values": [
      {"measurement": "dTM", "setting": "[3]", "value": "< 2", "unit": "K"}
    ]},
    {"smiles": "C=CC(=O)Nc1cc(-n2c(=O)ccc3cnc4ccc(-c5ccc(NS(C)(=O)=O)cc5)cc4c32)ccc1C", "values": [
      {"measurement": "% of control", "setting": "[4]; at 1 µM", "value": 100, "unit": "%"},
      {"measurement": "% of control", "setting": "[4]; at 10 µM", "value": 100, "unit": "%"}
    ]},
    {"smiles": "N#Cc1cccc(-c2c[nH]c3ncnc(N4CCOCC4)c23)c1", "values": [
      {"measurement": "% of control", "setting": "[5]", "value": 100, "unit": "%"}
    ]},
    {"smiles": "CN(C)CCOc1ccc(-c2nc(-c3ccncc3)c(-c3ccc4c(c3)CC/C4=N\\O)[nH]2)cc1", "values": [
      {"measurement": "% of control", "setting": "[6]", "value": 100, "unit": "%"}
    ]},
    {"smiles": "Cc1cc(F)c(C(=O)Nc2cccc(-c3nncn3C(C)C)n2)cc1-n1cnc(C2CC2)c1", "values": [
      {"measurement": "% of control", "setting": "[7]", "value": 71, "unit": "%"}
    ]},
    {"smiles": "CNC(=O)Nc1ccc(-c2nc(N3CC4CCC(C3)O4)c3cnn(C4CCC5(CC4)OCCO5)c3n2)cc1", "values": [
      {"measurement": "% of control", "setting": "[8]", "value": 100, "unit": "%"}
    ]},
    {"smiles": "Cn1cc(-n2cnc3c(NCc4nc5cc(Cl)c(Cl)cc5[nH]4)nc(N4CCOCC4)nc32)cn1", "values": [
      {"measurement": "% of control", "setting": "[9]", "value": 11.8, "unit": "%"}
    ]},
    {"smiles": "C=CC(=O)Nc1cccc(C(=O)Nc2ccc(Nc3cc(-c4[nH]c(SC)nc4C)ccn3)cc2)c1", "values": [
      {"measurement": "% of control", "setting": "[10]; at 1 µM", "value": 102, "unit": "%"},
      {"measurement": "% of control", "setting": "[10]; at 5 µM", "value": 76, "unit": "%"}
    ]}
  ]
}
